Results taken from patent publication US8361715B2, “Method for suppressing a FRET signal, FRET signal suppressor agents and use in a method for multiplexing biological events” (CIS Bio International, priority 2006, dated 2013).

Experiments:
[1] = tested on: trisbipyridine cryptate TBP; details: TBP donor, d2 acceptor; 20 mM; incubation 16 h at ambient temperature
Experimental: Two identical experiments aimed at detecting a GST-biotin protein were carried out. In each of the experiments, a particular rare earth complex was used as FRET donor: either the trisbipyridine cryptate TBP or a terbium chelate sold in a form conjugated to an anti-GST antibody by the company Invitrogen (Cat no. PV3568).
The biotinylated GST protein was dispensed into a 96-well plate. Its presence was detected by FRET between the donor (the TBP or the terbium chelate) (carried by an anti-GST antibody) and the d2 acceptor (carried by streptavidin), after incubation for 16 h at ambient temperature in the presence or absence of 20 mM of manganese chloride (MnCl2) or of EDTA. A time-resolved fluorescence measurement is carried out (td=50 μs, tg=400 μs) at 620 nm and 665 nm (respectively E620 and E665) on a Rubystar® machine (BMG Labtech). Based on the fluorescence intensity values, E620 and E665, the E665/E620 intensity ratio is calculated and multiplied by 10 000 for greater convenience. […] In order to compare the delta F values obtained in the various media for the same donor, said values are normalized relative to the delta F obtained in buffer (100%).

[2] = tested on: pyridine-bis(bipyridine) cryptate PBP4COOH; assay: FRET between PBP4COOH donor and d2 acceptor (biotinylated GST detection) with uric acid; details: PBP4COOH donor, 60 μM, incubation 16 h at ambient temperature
Experimental: (§1) In each of the experiments, a particular rare earth complex was used as FRET donor: either the trisbipyridine cryptate TBP or a pyridine-bis(bipyridine) cryptate PBP4COOH of formula: […]
(§2) Its presence was detected via FRET between the donor (the TBP or PBP4COOH) (carried by the anti-GST antibody) and the d2 acceptor (carried by streptavidin), after incubation for 16 h at ambient temperature in the presence or absence of 60 μM of uric acid. A time-resolved fluorescence measurement (td=50 μs, tg=400 μs) is carried out at 620 nm and 665 nm (E620 and E665, respectively) on a Rubystar® machine (BMG Labtech).
(§3) • 1.25 nM biotinylated GST; 2 nM anti-GST; 5 nM streptavidin; • 60 μm uric acid. Final reaction volume: 200 μl Buffer: 100 mM phosphate, pH 7.0, 0.10% BSA. Results

europium cryptate TBP = assay: FRET between TBP donor and d2 acceptor (biotinylated GST detection) with uric acid; details: TBP donor, 60 μM, incubation 16 h at ambient temperature
Experimental: as §1, §2, §3

Molecule	FRET signal (normalized delta F) [1]	FRET signal (normalized delta F) [2]	FRET signal inhibited (europium cryptate TBP)
O=C(O)CN(CCN(CC(=O)O)CC(=O)O)CC(=O)O [EDTA]	does not modify		
O=c1[nH]c(=O)c2[nH]c(=O)[nH]c2[nH]1 [uric acid]		does not modify	more than 85%
manganese chloride [MnCl2]	does not modify		
